Where “and” joins values, the source holds several entries; their conditions need not be identical. Equal entries are not always repeated. Inconclusive results and toxic doses are left out. The calls were made as follows: active = survival T/C of 150% or more; inactive = T/C below 125% in these data.
Test system: P388 leukemia ip, CD2F1 mice, survival T/C
Assay: NCI In Vivo Anticancer Drug Screen. Data for tumor model P388 Leukemia (intraperitoneal) in CD2F1 (CDF1) mice
Conditions: endpoint: median survival time, higher = longer survival
Outline: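 Mice carrying the transplanted tumor received test compound or vehicle. Survival was recorded in each group, and the value is the treated-group measurement divided by that of the vehicle-treated control group.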

[1] = dose: 100.0 mg/kg/injection, schedule: Q01DX009 (ip), vehicle: saline with Tween-80
[2] = dose: 200.0 mg/kg/injection, schedule: Q01DX009 (ip), vehicle: saline with Tween-80
[3] = dose: 60.0 mg/kg/injection, schedule: Q01DX005 (ip), vehicle: saline with Tween-80
[4] = dose: 120.0 mg/kg/injection, schedule: Q01DX005 (ip), vehicle: saline with Tween-80
[5] = dose: 240.0 mg/kg/injection, schedule: Q01DX005 (ip), vehicle: saline with Tween-80
[6] = dose: 7.5 mg/kg/injection, schedule: Q01DX005 (ip), vehicle: Klucel (hydroxypropylcellulose) (HPC)
[7] = dose: 15.0 mg/kg/injection, schedule: Q01DX005 (ip), vehicle: Klucel (hydroxypropylcellulose) (HPC)
[8] = dose: 30.0 mg/kg/injection, schedule: Q01DX005 (ip), vehicle: Klucel (hydroxypropylcellulose) (HPC)
[9] = dose: 100.0 mg/kg/injection, schedule: Q04DX003 (ip), vehicle: Klucel (hydroxypropylcellulose) (HPC)
[10] = dose: 200.0 mg/kg/injection, schedule: Q04DX003 (ip), vehicle: Klucel (hydroxypropylcellulose) (HPC)
[11] = dose: 400.0 mg/kg/injection, schedule: Q04DX003 (ip), vehicle: Klucel (hydroxypropylcellulose) (HPC)
[12] = dose: 50.0 mg/kg/injection, schedule: Q01DX009 (ip), vehicle: saline
[13] = dose: 100.0 mg/kg/injection, schedule: Q01DX009 (ip), vehicle: saline
[14] = dose: 200.0 mg/kg/injection, schedule: Q01DX009 (ip), vehicle: saline
[15] = dose: 25.0 mg/kg/injection, schedule: Q01DX009 (ip), vehicle: Klucel (hydroxypropylcellulose) (HPC)
[16] = dose: 50.0 mg/kg/injection, schedule: Q01DX009 (ip), vehicle: Klucel (hydroxypropylcellulose) (HPC)
[17] = dose: 100.0 mg/kg/injection, schedule: Q01DX009 (ip), vehicle: Klucel (hydroxypropylcellulose) (HPC)

Measured: T/C

O=C(NCCCBr)Nc1cccc2c1CCCC2
inactive: [1] 100 % of control | dose: 100.0 mg/kg/injection, schedule: Q04DX003 (ip), vehicle: saline with Tween-80 100 % of control | [2] 100 % of control | dose: 200.0 mg/kg/injection, schedule: Q04DX003 (ip), vehicle: saline with Tween-80 108 % of control | dose: 400.0 mg/kg/injection, schedule: Q01DX009 (ip), vehicle: saline with Tween-80 100 % of control | dose: 400.0 mg/kg/injection, schedule: Q04DX003 (ip), vehicle: saline with Tween-80 100 % of control

O=C1C=C(O)CC(c2ccccc2)N1 (centres undefined)
inactive: dose: 50.0 mg/kg/injection, schedule: Q01DX005 (ip), vehicle: Klucel (hydroxypropylcellulose) (HPC) 102 % of control | dose: 100.0 mg/kg/injection, schedule: Q01DX005 (ip), vehicle: Klucel (hydroxypropylcellulose) (HPC) 104 % of control | dose: 200.0 mg/kg/injection, schedule: Q01DX005 (ip), vehicle: Klucel (hydroxypropylcellulose) (HPC) 108 % of control

CC(=NCc1ccccc1)c1c(C)cc(=O)n(-c2ccccc2)c1O
inactive: [3] 96 % of control | [4] 97 % of control | [5] 89 % of control

O=NNc1ccc(SSc2ccc(NN=O)cc2)cc1
inactive: dose: 1.56 mg/kg/injection, schedule: Q01DX009 (ip), vehicle: water 106 % of control | dose: 3.12 mg/kg/injection, schedule: Q01DX009 (ip), vehicle: water 100 % of control and 124 % of control | dose: 6.25 mg/kg/injection, schedule: Q01DX009 (ip), vehicle: water 121 % of control | dose: 12.5 mg/kg/injection, schedule: Q01DX009 (ip), vehicle: water 123 % of control

CN=C(N)N/N=C/COc1ccc(C)cc1
inactive: dose: 60.0 mg/kg/injection, schedule: Q01DX005 (ip), vehicle: saline 92 % of control | dose: 120.0 mg/kg/injection, schedule: Q01DX005 (ip), vehicle: saline 94 % of control

CCCS(=O)(=O)CCC(=O)c1cccs1
inactive: dose: 100.0 mg/kg/injection, schedule: Q04DX002 (ip), vehicle: saline 104 % of control | dose: 200.0 mg/kg/injection, schedule: Q04DX002 (ip), vehicle: saline 100 % of control | dose: 400.0 mg/kg/injection, schedule: Q04DX002 (ip), vehicle: saline 101 % of control

CCOC(=O)C1=C(C(C)=O)C(c2ccc([N+](=O)[O-])cc2)C(C(C)=O)=C(C(=O)OCC)N1
inactive: [6] 101 % of control | [7] 104 % of control | [8] 102 % of control

COC(=O)C1C2C=CC(C1C(=O)OC)N(/C=C/c1ccccc1)C2=O (centres undefined)
inactive: [9] 96 % of control | [10] 95 % of control | [11] 97 % of control

CN(C)CCN(C)CCc1ccccn1
inactive: dose: 100.0 mg/kg/injection, schedule: Q01DX001 (ip), vehicle: saline 109 % of control | dose: 200.0 mg/kg/injection, schedule: Q01DX001 (ip), vehicle: saline 102 % of control | dose: 400.0 mg/kg/injection, schedule: Q01DX001 (ip), vehicle: saline 105 % of control

BrC1=CC(Br)=C2N=C(N3CCCC3)N=C3N=C(C(Br)(Br)Br)N=C1N32
inactive: [6] 94 % of control | [7] 92 % of control | [8] 86 % of control and 90 % of control | dose: 60.0 mg/kg/injection, schedule: Q01DX005 (ip), vehicle: Klucel (hydroxypropylcellulose) (HPC) 86 % of control | dose: 120.0 mg/kg/injection, schedule: Q01DX005 (ip), vehicle: Klucel (hydroxypropylcellulose) (HPC) 88 % of control | dose: 240.0 mg/kg/injection, schedule: Q01DX005 (ip), vehicle: Klucel (hydroxypropylcellulose) (HPC) 94 % of control

C[Si](C)(c1ccc(Cl)cc1)c1ccc(Cl)cc1
inactive: [12] 97 % of control | [13] 100 % of control | [14] 99 % of control

CCCCN=C(c1ccc(O)cc1)c1ccc(OC)cc1O
inactive: [3] 108 % of control | [4] 92 % of control | [5] 99 % of control

COC(=O)c1cc(OC)c2cccnc2c1Nc1ccccc1
inactive: [3] 102 % of control | [4] 102 % of control | [5] 100 % of control

C=CCn1/c(=N\NC(=O)c2ccncc2)sc2ccccc21
inactive: dose: 6.25 mg/kg/injection, schedule: Q01DX009 (ip), vehicle: Klucel (hydroxypropylcellulose) (HPC) 114 % of control | dose: 12.5 mg/kg/injection, schedule: Q01DX009 (ip), vehicle: Klucel (hydroxypropylcellulose) (HPC) 100 % of control | [15] 103 % of control

Brc1cc2cccnc2c2ccccc12
inactive: dose: 100.0 mg/kg/injection, schedule: Q01DX001 (ip), vehicle: Klucel (hydroxypropylcellulose) (HPC) 98 % of control | dose: 200.0 mg/kg/injection, schedule: Q01DX001 (ip), vehicle: Klucel (hydroxypropylcellulose) (HPC) 94 % of control | dose: 400.0 mg/kg/injection, schedule: Q01DX001 (ip), vehicle: Klucel (hydroxypropylcellulose) (HPC) 97 % of control

c1cc2c3c(cccc3c1)-c1nc3ccccc3nc1-2
inactive: [15] 101 % of control | [16] 100 % of control | [17] 92 % of control

Clc1nnc(-c2ccccc2)s1
inactive: dose: 25.0 mg/kg/injection, schedule: Q04DX003 (ip), vehicle: Klucel (hydroxypropylcellulose) (HPC) 100 % of control | dose: 50.0 mg/kg/injection, schedule: Q04DX003 (ip), vehicle: Klucel (hydroxypropylcellulose) (HPC) 102 % of control | [9] 100 % of control

CN(C)CC1CC/C=C\C(c2ccccc2)N(C)C1c1ccccc1 (centres undefined)
inactive: dose: 100.0 mg/kg/injection, schedule: Q04DX003 (ip), vehicle: suspension in saline 105 % of control | dose: 200.0 mg/kg/injection, schedule: Q04DX003 (ip), vehicle: suspension in saline 116 % of control | dose: 400.0 mg/kg/injection, schedule: Q04DX003 (ip), vehicle: suspension in saline 99 % of control

COc1ccccc1/C=N/NC(=O)Cc1ccccc1
inactive: dose: 50.0 mg/kg/injection, schedule: Q01DX009 (ip), vehicle: saline with Tween-80 101 % of control | [1] 91 % of control | [2] 93 % of control

C=C1C(=O)OC2/C=C(\C)C(=O)CC3OC(C)(C)OC3(C)CC(OC(=O)/C(C)=C/C)C12 (centres undefined)
inactive: dose: 10.0 mg/kg/injection, schedule: Q01DX009 (ip), vehicle: saline with Tween-80 99 % of control | dose: 20.0 mg/kg/injection, schedule: Q01DX009 (ip), vehicle: saline with Tween-80 105 % of control | dose: 40.0 mg/kg/injection, schedule: Q01DX009 (ip), vehicle: saline with Tween-80 90 % of control

COc1ccc(-c2csc(C)n2)cc1OC
inactive: [9] 106 % of control | [10] 106 % of control | [11] 103 % of control

CC12CC(C(=O)O)C(C)(C1=O)C(c1ccccc1)=C2c1ccccc1 (centres undefined)
inactive: [15] 92 % of control | [16] 93 % of control | [17] 97 % of control | dose: 200.0 mg/kg/injection, schedule: Q01DX009 (ip), vehicle: Klucel (hydroxypropylcellulose) (HPC) 94 % of control

COc1ccc(OC)c(C2SCC(=O)N2c2nncs2)c1 (centres undefined)
inactive: [3] 104 % of control | [4] 97 % of control | [5] 97 % of control

CN(C)c1n[nH]c(N)n1
inactive: dose: 12.5 mg/kg/injection, schedule: Q01DX009 (ip), vehicle: saline 101 % of control | dose: 25.0 mg/kg/injection, schedule: Q01DX009 (ip), vehicle: saline 103 % of control | [12] 108 % of control and 95 % of control and 97 % of control | [13] 103 % of control and 104 % of control and 108 % of control | [14] 105 % of control and 97 % of control | dose: 400.0 mg/kg/injection, schedule: Q01DX009 (ip), vehicle: saline 105 % of control and 111 % of control and 113 % of control

CNC(=O)CCl
inactive: dose: 100.0 mg/kg/injection, schedule: Q04DX003 (ip), vehicle: saline 99 % of control | dose: 200.0 mg/kg/injection, schedule: Q04DX003 (ip), vehicle: saline 99 % of control

Cc1cc(Cl)c2c(N(C)C)cccc2n1
inactive: dose: 50.0 mg/kg/injection, schedule: Q01DX009 (ip), vehicle: acid diluted with saline 106 % of control | dose: 100.0 mg/kg/injection, schedule: Q01DX009 (ip), vehicle: acid diluted with saline 93 % of control

CNC(=O)CC(C(=O)O)N(C)C (centres undefined)
inactive: dose: 50.0 mg/kg/injection, schedule: Q01DX009 (ip), vehicle: water 98 % of control | dose: 100.0 mg/kg/injection, schedule: Q01DX009 (ip), vehicle: water 106 % of control | dose: 200.0 mg/kg/injection, schedule: Q01DX009 (ip), vehicle: water 107 % of control

Reference: PubChem BioAssay AID330 (DTP/NCI, 2004)
